The text below walks through data of patent US20250367233A1, “NOVEL PHARMACEUTICAL COMPOSITION CONTAINING IRON AND MEGLUMINE” (priority 2024, published 2025).

The data set in a line: Solubility of ferric meglumine / meglumine in solvents.

As for `CNC[C@H](O)[C@@H](O)[C@H](O)[C@H](O)CO` [Meglumine, N-Methyl-D-glucamine], the solubility in water result was “soluble”.
